Measurements as given in ChEMBL document CHEMBL5346893, “1,2,4-Amino-triazine derivatives as pyruvate dehydrogenase kinase inhibitors: Synthesis and pharmacological evaluation” (Eur J Med Chem, 2023).
Calls of active or inactive are those of the source. The rule behind the calls is not given here.

Columns and labels:
[1] = target: [Pyruvate dehydrogenase (acetyl-transferring)] kinase isozyme 3, mitochondrial (Homo sapiens) (UniProt Q15120); assay: Inhibition of PDK3 (unknown origin) at 1.5 uM incubated for 30 mins followed by substrate addition measured after 60 mins in presence of ATP by ADP-Glo luminescent assay relative to control; settings: time 90.0 min
Chain of [Pyruvate dehydrogenase (acetyl-transferring)] kinase isozyme 3, mitochondrial (Homo sapiens) (Q15120 whole entry, looked up): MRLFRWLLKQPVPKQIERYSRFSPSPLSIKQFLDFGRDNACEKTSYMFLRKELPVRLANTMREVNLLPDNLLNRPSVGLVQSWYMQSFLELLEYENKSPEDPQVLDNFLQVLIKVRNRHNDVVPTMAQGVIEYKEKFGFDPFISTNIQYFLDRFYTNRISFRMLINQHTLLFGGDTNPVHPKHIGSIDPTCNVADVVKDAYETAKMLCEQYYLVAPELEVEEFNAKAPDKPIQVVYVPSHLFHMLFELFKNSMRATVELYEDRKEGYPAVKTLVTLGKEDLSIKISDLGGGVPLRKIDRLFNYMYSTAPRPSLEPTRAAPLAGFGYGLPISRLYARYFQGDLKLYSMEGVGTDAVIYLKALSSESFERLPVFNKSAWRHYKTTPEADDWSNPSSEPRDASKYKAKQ

BXPC-3 [2] = assay: Antiproliferative activity against human BXPC-3 cells expressing wild type KRAS cultured as 3D spheroids assessed as inhibition of cell growth measured after 72 hrs by MTT assay; format: functional, cell-based; settings: BXPC-3, 72 h
[3] = target: T1, [Pyruvate dehydrogenase (acetyl-transferring)] kinase isozyme 1, mitochondrial (Homo sapiens, UniProt Q15118); assay: Inhibition of PDK1 (unknown origin) at 1.5 uM incubated for 30 mins followed by substrate addition measured after 60 mins in presence of ATP by ADP-Glo luminescent assay relative to control; settings: time 90.0 min, values are per cent of control
T1 sequence (Q15118 whole entry): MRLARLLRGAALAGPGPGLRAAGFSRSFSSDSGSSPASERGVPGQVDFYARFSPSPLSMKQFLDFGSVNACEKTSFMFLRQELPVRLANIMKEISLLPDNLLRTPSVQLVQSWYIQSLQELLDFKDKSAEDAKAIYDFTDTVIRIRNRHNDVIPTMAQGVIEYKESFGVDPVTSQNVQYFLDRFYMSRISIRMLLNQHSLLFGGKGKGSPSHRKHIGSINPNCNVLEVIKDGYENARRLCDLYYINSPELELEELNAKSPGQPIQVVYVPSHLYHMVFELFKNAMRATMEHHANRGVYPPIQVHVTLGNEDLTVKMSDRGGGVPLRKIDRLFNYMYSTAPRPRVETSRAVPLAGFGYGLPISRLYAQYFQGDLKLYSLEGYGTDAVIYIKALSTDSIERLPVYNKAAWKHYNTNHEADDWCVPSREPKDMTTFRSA

PSN1 [4] = assay: Antiproliferative activity against human PSN1 cells expressing KRAS mutant cultured as 3D spheroids assessed as inhibition of cell growth measured after 72 hrs by MTT assay; format: functional, cell-based; settings: PSN1, 72 h
PSN1 [5] = assay: Antiproliferative activity against human PSN1 cells expressing KRAS mutant cultured as 2D spheroids assessed as inhibition of cell growth measured after 72 hrs by MTT assay; format: functional, cell-based; settings: PSN1, 72 h
BXPC-3 [6] = assay: Antiproliferative activity against human BXPC-3 cells expressing wild type KRAS cultured as 2D spheroids assessed as inhibition of cell growth measured after 72 hrs by MTT assay; format: functional, cell-based; settings: BXPC-3, 72 h
[7] = target: [Pyruvate dehydrogenase (acetyl-transferring)] kinase isozyme 2, mitochondrial (Homo sapiens) (UniProt Q15119); assay: Inhibition of PDK2 (unknown origin) at 1.5 uM incubated for 30 mins followed by substrate addition measured after 60 mins in presence of ATP by ADP-Glo luminescent assay relative to control; settings: time 90.0 min
PSN1 [8] = assay: Inhibition of PDK in human PSN1 cells expressing KRAS mutant assessed as increase in cellular oxygen consumption at IC50 incubated for 60 mins by fluorescence based analysis; format: cell-based
PSN1 [9] = assay: Downregulation of PDHA1 phosphorylation in human PSN1 cells at IC50 incubated for 24 hrs by ELISA assay; format: functional, cell-based
PSN1 [10] = assay: Inhibition of PDK in human PSN1 cells expressing KRAS mutant assessed as decrease in lactate production levels at IC50 incubated for 60 mins by colorimetric analysis; format: cell-based
[11] = target: T1, [Pyruvate dehydrogenase (acetyl-transferring)] kinase isozyme 1, mitochondrial; assay: Inhibition of PDK1 (unknown origin) incubated for 30 mins followed by substrate addition measured after 60 mins in presence of ATP by ADP-Glo luminescent assay
PSN1 [12] = assay: Induction of reactive oxygen species production in human PSN1 cells assessed as increase in cellular hydrogen peroxide formation at 5 uM by CM-H2DCFDA staining based analysis; format: functional, cell-based
Heat shock protein HSP90 = Heat shock protein HSP90 (Homo sapiens, UniProt P07900+P08238); assay: Inhibition of human recombinant HSP90 at 1.5 uM incubated for 30 mins by fluorescence polarization based analysis relative to control; format: protein assay

Row | Structure (SMILES) | inhibition [1] [%] | IC50 (BXPC-3 [2]) [µM] | residual activity [3] [%] | IC50 (PSN1 [4]) [µM] | IC50 (PSN1 [5]) [µM] | IC50 (BXPC-3 [6]) [µM] | inhibition [7] [%] | inhibition (PSN1 [8]) | Activity (PSN1 [9]) | inhibition (PSN1 [10]) | IC50 [11] [µM] | Activity (PSN1 [12]) | inhibition (Heat shock protein HSP90) [%]
1 | Cn1cc(-c2nc(N)nnc2-c2c[nH]c3ccc(F)cc23)c2cccnc21 | 100 | 22.2 | 40 | 20.3 | 3.2 | 2.2 | 100 | – | – | – | – | – | –
2 | Cn1cc(-c2nc(N)nnc2-c2c[nH]c3ccccc23)c2cc(Br)cnc21 | – | 33.6 | 40 | 31.2 | 4.7 | 2.7 | 100 | – | – | – | – | – | –
3 | O=C(c1ccccc1)C(Cl)Cl | – | 78.2 | – | 87.4 | 36.5 | 10.2 | – | Active | Active | Active | > 100 | – | –
4 | O=C(O)C(Cl)Cl [DICHLOROACETIC ACID] | – | > 1000 | – | > 1000 | > 1000 | > 1000 | – | – | – | – | – | – | –
5 | Nc1nnc(-c2c[nH]c3ccccc23)c(-c2c[nH]c3ncccc23)n1 | 100 | 23.2 | 40 | 14.3 | 1.8 | 1.5 | 100 | – | – | – | – | – | –
6 | COc1ccc2[nH]cc(-c3nc(N)nnc3-c3cn(C)c4ncccc34)c2c1 | – | 13.6 | 40 | 13.6 | 2.3 | 1.4 | 100 | – | – | – | – | – | –
7 | COc1ccc2[nH]cc(-c3nc(N)nnc3-c3c[nH]c4ncccc34)c2c1 | 100 | 34.2 | 40 | 35.2 | 2.2 | 2.1 | 100 | – | – | – | – | – | –
8 | Nc1nnc(-c2c[nH]c3ncccc23)c(-c2c[nH]c3ccc(F)cc23)n1 | – | 19.7 | 40 | 20.1 | 3.2 | 2.6 | 100 | – | – | – | – | – | –
9 | Nc1nnc(-c2c[nH]c3ccc(F)cc23)c(-c2c[nH]c3ncccc23)n1 | – | 22.6 | 40 | 22.3 | 1.6 | 1.2 | 100 | – | – | – | – | – | –
10 | Nc1nnc(-c2c[nH]c3ncc(Br)cc23)c(-c2c[nH]c3ccc(F)cc23)n1 | 100 | 19.7 | 40 | 28.3 | 2.9 | 2.5 | 100 | – | – | – | – | – | –
11 | Cn1cc(-c2nc(N)nnc2-c2c[nH]c3ccccc23)c2cccnc21 | – | 15.5 | 40 | 13.2 | 2.1 | 1.9 | 100 | – | – | – | – | – | –
12 | Nc1nnc(-c2c[nH]c3ccc(Br)cc23)c(-c2c[nH]c3ncc(Br)cc23)n1 | – | 54.5 | 40 | 21.6 | 1.5 | 1.4 | 100 | – | – | – | – | – | –
13 | Nc1nnc(-c2c[nH]c3ccc(F)cc23)c(-c2c[nH]c3ncc(Br)cc23)n1 | 100 | 14.9 | 40 | 19.2 | 1.3 | 1.7 | 100 | – | – | – | – | – | –
14 | Cn1cc(-c2nnc(N)nc2-c2c[nH]c3ccccc23)c2cc(Br)cnc21 | – | 34.2 | 40 | 31.8 | 4.6 | 3.2 | 100 | – | – | – | – | – | –
15 | COc1ccc2[nH]cc(-c3nnc(N)nc3-c3cn(C)c4ncccc34)c2c1 | – | 10.7 | 40 | 12.2 | 2.1 | 1.5 | 100 | – | – | – | – | – | –
16 | Cn1cc(-c2nnc(N)nc2-c2c[nH]c3ccccc23)c2cccnc21 | – | 16.1 | 40 | 20.1 | 2.2 | 1.8 | 100 | – | – | – | – | – | –
17 | Nc1nnc(-c2c[nH]c3ncc(Br)cc23)c(-c2c[nH]c3ccc(Br)cc23)n1 | 100 | 28.7 | 40 | 23.5 | 4.6 | 2.1 | 100 | – | – | – | – | – | –
18 | Nc1nnc(-c2c[nH]c3ccc(Br)cc23)c(-c2c[nH]c3ncccc23)n1 | – | – | 40 | – | – | – | 100 | – | – | – | – | – | –
19 | CCCCCC[C@H]1C(=O)O[C@H](C)[C@H](NC(=O)c2cccc(NC=O)c2O)C(=O)O[C@@H](C)[C@@H]1OC(=O)CC(C)C | – | – | – | – | – | – | – | – | – | – | – | Active | –
20 | Nc1nnc(-c2c[nH]c3ncccc23)c(-c2c[nH]c3ccc(Br)cc23)n1 | – | 16.4 | 40 | 15.1 | 1.6 | 1.8 | 100 | – | – | – | – | – | –
21 | Cn1cc(-c2nc(N)nnc2-c2c[nH]c3ccc(Br)cc23)c2cccnc21 | 100 | 19.9 | 40 | 24.1 | 3.6 | 2.5 | 100 | – | – | – | – | – | –
22 | Cn1cc(-c2nnc(N)nc2-c2c[nH]c3ccc(F)cc23)c2cccnc21 | 100 | 14.6 | 40 | 16 | 1.6 | 1.6 | 100 | – | – | – | – | – | –
23 | Cn1cc(-c2nnc(N)nc2-c2c[nH]c3ccc(Br)cc23)c2cccnc21 | 100 | 25.9 | 40 | 20.9 | 2.9 | 2.3 | 100 | – | – | – | – | – | –
24 | COc1ccc2[nH]cc(-c3nnc(N)nc3-c3c[nH]c4ncc(Br)cc34)c2c1 | – | 27.5 | 40 | 22.1 | 3.4 | 3.2 | 100 | – | – | – | – | – | –
25 | COc1ccc2[nH]cc(-c3nc(N)nnc3-c3c[nH]c4ncc(Br)cc34)c2c1 | 100 | 31.2 | 40 | 17.2 | 4.7 | 4.4 | 100 | – | – | – | – | – | –
26 | COc1ccc2[nH]cc(-c3nc(N)nnc3-c3cn(C)c4ncc(Br)cc34)c2c1 | 100 | 6.3 | 40 | 8.4 | 2.6 | 0.3 | 100 | – | – | – | – | – | 0
27 | COc1ccc2[nH]cc(-c3nnc(N)nc3-c3c[nH]c4ncccc34)c2c1 | – | – | 40 | – | – | – | 100 | – | – | – | – | – | –
